{"source": "patent US20190030113A1", "about": "“DIPEPTIDYL ALDEHYDES FOR THE TREATMENT AND/OR PREVENTION OF PARASITIC DISEASES” (AXIAVA PHARMA UG, priority 2017, published 2019)", "key": {"Histomonas meleagridis": {"test_system": "Histomonas meleagridis", "conditions": "300-400 ppm, cited from earlier work"}, "cathepsin L": {"molecular_target": "cathepsin L (Homo sapiens, UniProt P07711)", "sequence (P07711 114-333, species assumed)": "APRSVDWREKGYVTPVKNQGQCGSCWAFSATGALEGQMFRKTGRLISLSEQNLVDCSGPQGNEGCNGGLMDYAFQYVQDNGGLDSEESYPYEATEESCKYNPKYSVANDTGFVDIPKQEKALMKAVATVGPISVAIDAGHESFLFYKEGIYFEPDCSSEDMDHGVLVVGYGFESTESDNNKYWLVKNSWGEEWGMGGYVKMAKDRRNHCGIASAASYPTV", "conditions": "cited from earlier work"}, "T. gallinae [1]": {"test_system": "T. gallinae", "test": "in vitro growth of T. gallinae (total trophozoite number)", "assay_type": "cell-based, Trichomonas gallinae", "conditions": "10,000 nM, after 24 hours of treatment, normalized to 1% DMSO-treated group NCA", "method": "(§1) Z—FY—CHO was tested in an in vitro assay on growth and viability of two strains of T. gallinae (Vienna strain and ATCC 30095). T. gallinae is cultured in vitro under axenic conditions. Both strains are cultured in ATCC® Medium 2154 (LYI Entamoeba medium) which is prepared according to the recommendations of ATCC. Culture conditions are anaerobic at 37° C. Cultures are kept in sterile 50 ml plastic tubes in a total volume of 10 ml. T. gallinae cultures are passaged regularly (in two-day intervals) in advance to maintain the strains for the study.\nQuantification of total parasite number: The total parasite number is calculated separately for each tube. Therefore, the contents of each tube are centrifuged and the sediment resuspended in a given volume. A dilution of a subsample is being examined in a Neubauer counting chamber, the total number of parasites counted and the number of parasites in the respective tube be calculated.\nEach treatment group consists of 3 identical replicates, i.e. 3 tubes with identical treatment (triplicate).\n(§2) Five concentrations of each substance were tested against T. gallinae, namely 1 nM, 10 nM, 100 nM, 1000 nM, and 10000 nM. The total exposure time of the test compounds for the efficacy assay was 72 hours; media were renewed in intervals of 24 hours. Efficacy was measured after 24 hours of incubation."}, "T. gallinae [2]": {"test_system": "T. gallinae", "test": "in vitro viability of T. gallinae (viable-to-dead ratio, DAPI staining)", "assay_type": "cell-based, Trichomonas gallinae", "conditions": "different concentrations; after 24 hours of treatment", "method": "as §1, §2\nThe total parasite number is calculated before a subsample is subject to counting of viable and dead parasites. For counting, parasites are stained by DAPI nucleus staining for differentiation of viable and dead parasites."}, "[3]": {"test_system": "T. gallinae cultured from the Vienna strain", "test": "in vivo efficacy study in pigeons inoculated with T. gallinae", "parameters": "species or system Columba livia forma domestica", "conditions": "5 mg/kg oral twice daily during 4 days, 15 birds per group", "method": "(§3) Thirty Columba livia forma domestica of both gender (2 groups of fifteen birds) were inoculated per os via a syringe with 2 million T. gallinae cultured from the Vienna strain. Initial age of the pigeons was 4-5 months. Two days later the pigeons were treated with twice daily oral administration of 5 mg/kg of Z—FY—CHO or the placebo (vehicle alone) during 4 days. The formulation was composed of 50 mg of the agent added to 1.0 ml 96 g/v % ethanol and 4 gram of prewarmed Solutol HS15. The formulation was stirred to a clear solution, then it was topped up with prewarmed distilled water to a volume of 10 ml. From this solution 0.1 ml per 100 g body weight was administered (=5 mg/kg). […] Regurgitation has been detected first in one pigeon from the placebo group in the evening on day of infection. […] No gross pathological findings in the esophagus or crop were detected during the necropsy. However, heterophilic infiltrates in the mucosa as well as in the submucous tissue and lymphocytes and plasmacells in the submucous tissue have been detected histopathologically in total eight pigeons (27%). Catarrhal erosive esophagitis and ingluvitis was significant more often detected in pigeons from the placebo group (7 of 8 pigeons with inflammatory reaction of the esophagus and crop, 88%; p=0.018)."}, "coccidiae": {"test_system": "coccidiae", "test": "coccidiosis finding in the in vivo pigeon study", "parameters": "species or system Columba livia forma domestica", "conditions": "5 mg/kg oral twice daily during 4 days; 3 of 15 placebo pigeons still showed coccidiae", "method": "as §3"}, "[4]": {"test": "side effects in the in vivo pigeon study", "parameters": "species or system Columba livia forma domestica", "conditions": "10 mg/kg per day oral, 4 days, pigeons", "method": "as §3"}, "Eimeria spp.": {"test_system": "Eimeria spp.", "conditions": "20 mg/kg body weight, up to 14 days before the experimental infection; on average; cited from earlier work"}}, "note": "Residues, ends and D or L forms follow the SMILES beside them. *: point of attachment. Cbz = O=C(OCc1ccccc1)*; tBu = CC(C)(C)*"}
{"compound": "CC1CS(=O)(=O)CCN1/N=C/c1ccc([N+](=O)[O-])o1", "note": "(stereo not drawn) [Nifurtimox]", "values": [{"measurement": "tolerability", "setting": "Histomonas meleagridis; turkeys", "result": "tolerated by turkeys"}, {"measurement": "efficacy (antiprotozoal)", "setting": "Histomonas meleagridis", "result": "effective"}]}
{"compound": "O=C[C@H](Cc1ccccc1)NC(=O)[C@H](Cc1ccccc1)NC(=O)OCc1ccccc1", "note": "[a, Z-Phe-Phe-CHO] (Cbz-Phe-Phe-aldehyde)", "values": [{"measurement": "IC50", "setting": "cathepsin L", "result": 0.74, "unit": "nM"}]}
{"compound": "O=C[C@H](Cc1ccc(O)cc1)NC(=O)[C@H](Cc1ccccc1)NC(=O)OCc1ccccc1", "note": "[b, N-(benzyloxycarbonyl)-L-phenylalanyl-L-tyrosinal] (Cbz-Phe-Tyr-aldehyde)", "values": [{"measurement": "trophozoite number relative to group NCA (control group)", "setting": "T. gallinae [1]; ATCC 30095 strain", "result": 26.3, "unit": "%"}, {"measurement": "trophozoite number relative to group NCA (control group)", "setting": "T. gallinae [1]; Vienna strain", "result": 24.0, "unit": "%"}, {"measurement": "viable-to-dead ratios compared to the control group NCA", "setting": "T. gallinae [2]", "result": "Markedly lower"}, {"measurement": "pigeons with regurgitation", "setting": "[3]; placebo 7 of 15, p=0.018", "result": "one"}, {"measurement": "pigeons with catarrhal erosive esophagitis and ingluvitis (histopathology)", "setting": "[3]; placebo 7 pigeons, p=0.018", "result": "one"}, {"measurement": "detection of coccidiae after treatment", "setting": "coccidiae", "result": "no coccidiae could be detected"}, {"measurement": "side effects", "setting": "[4]", "result": "no obvious and/or statistically significant side effects"}]}
{"compound": "CC(C)C[C@@H](C=O)NC(=O)[C@H](Cc1ccccc1)NC(=O)OCc1ccccc1", "note": "[c, Z-Phe-Leu-CHO] (Cbz-Phe-Leu-aldehyde)", "values": [{"measurement": "IC50", "setting": "cathepsin L", "result": 0.78, "unit": "nM"}]}
{"compound": "C[C@@H](C=O)NC(=O)[C@H](Cc1ccccc1)NC(=O)OCc1ccccc1", "note": "[d, Z-Phe-Ala-CHO]", "values": [{"measurement": "IC50", "setting": "cathepsin L", "result": 15.5, "unit": "nM"}]}
{"compound": "COc1ccc(C[C@@H](C=O)NC(=O)[C@H](Cc2ccccc2)NC(=O)OCc2ccccc2)cc1", "note": "[e, Z-Phe-Tyr(Me)-CHO] (Cbz-Phe-Tyr(Me)-aldehyde)", "values": [{"measurement": "IC50", "setting": "cathepsin L", "result": 2.95, "unit": "nM"}]}
{"compound": "CC(C)(C)Oc1ccc(CC(C=O)NC(=O)C(Cc2ccccc2)NC(=O)OCc2ccccc2)cc1", "note": "(stereo not drawn) [f, Z-Phe-Tyr(Bu)-CHO] (Cbz-Phe-Tyr(tBu)-aldehyde; configuration not given here)", "values": [{"measurement": "IC50", "setting": "cathepsin L", "result": 6.96, "unit": "nM"}]}
{"compound": "Cc1cc(-n2c(=O)[nH]c(=O)n(C)c2=O)ccc1Oc1ccc(SC(F)(F)F)cc1", "note": "[toltrazuril]", "values": [{"measurement": "reduction in the number of oocysts in individual fecal samples", "setting": "Eimeria spp.", "result": "more than 97%"}]}
